# Experimental data: PMC7217877, “N-AS-triggered SPMs are direct regulators of microglia in a model of Alzheimer’s disease” (Nature Communications, 2020)
# Several values for one entry are separate records, joined by “and”; a condition that tells them apart may be missing. Equal entries are not always repeated.
# B1: Sphk1: purified sphingosine kinase1 enzyme (Cayman, 10348) supplemented to cell lysates (protein, UniProt Q9NYA1 1-384, looked up)
# Sphingosine kinase 1: MDPAGGPRGVLPRPCRVLVLLNPRGGKGKALQLFRSHVQPLLAEAEISFTLMLTERRNHARELVRSEELGRWDALVVMSGDGLMHEVVNGLMERPDWETAIQKPLCSLPAGSGNALAASLNHYAGYEQVTNEDLLTNCTLLLCRRLLSPMNLLSLHTASGLRLFSVLSLAWGFIADVDLESEKYRRLGEMRFTLGTFLRLAALRTYRGRLAYLPVGRVGSKTPASPVVVQQGPVDAHLVPLEEPVPSHWTVVPDEDFVLVLALLHSHLGSEMFAAPMGRCAAGVMHLFYVRAGVSRAMLLRLFLAMEKGRHMEYECPYLVYVPVVAFRLEPKDGKGVFAVDGELMVSEAVQGQVHPNYFWMVSGCVEPPPSWKPQQMPPPEEPL
# Legend:
# [1] = tested on: neuron; assay: western blotting for ac-S565 and total COX2 in primary cells; assay type: cell-based, C57BL/6 mice; details: replicates
# [2] = tested on: microglia; assay: quantification of 15R-LXA4, RvE1, RvD1 in primary cells (LC-MS/MS); assay type: cell-based, C57BL/6 mice; set-up: unit not given here; details: replicates
# Method: Lipid mediators metabololipidomics were performed according to previously described procedures with minor modifications[4],[30]. To confirm the biosynthesis of lipid mediators by recombinant COX2 treated with N-AS or aspirin, 10 U of human recombinant COX2 (Cayman, 60122) was incubated in the presence of 500 μM aspirin (Sigma-Aldrich, A5376) or N-AS (Sigma-Aldrich, 01912) at 37 °C for 30 min. The enzyme was filtered with a Microcon column (Millipore) to remove unreacted aspirin or N-AS and was then resuspended in 0.1 M Tris-HCl (pH 8.0). Next, 500 μM phenol (Sigma-Aldrich) and 1 μM hematin-porcine (Sigma-Aldrich) were added immediately before incubation with 100 μM AA, EPA or DHA (Cayman) at 37 °C for 2 h, respectively. The mixtures were incubated with 30 U of human 5-LOX (Cayman, 60402) containing 2 mM CaCl2 (Sigma-Aldrich), 1 mM ATP (Amresco) and 5 μM 13-HpODE (Cayman) as activators. Also, to validate the importance of residue S565 for N-AS-acetylation of COX2 and production of SPMs, 10 U of the COX2 S565A mutant was used in the above-described method. In addition, to confirm SPM generation in neurons and microglia, these cells were treated with Aβ and sonicated in neuronal and glial culture medium. […] To evaluate the relationship of N-AS and SPM production in microglia, microglia were isolated from WT, APP/PS1, and APP/PS1 treated with N-AS mice at 9 months of age. The microglia were sonicated and resuspended in microglial culture medium. The supernatants were incubated with 100 μM AA, EPA, and DHA (Cayman) at 37 °C for 2 h. A 50 μl aliquot of the mixture from each cell lysate was added to a 250 μl aliquot of 1 ng ml^−1 of 15S-LXA4-d5 (internal standard, Cayman) methanol solution. After vortexing for 10 min and centrifuging at 15,974×g for 5 min, the supernatant was subjected to the analysis of the lipid mediators using an Agilent 6470 Triple Quad LC-MS/MS system (Agilent) coupled to an Agilent 1290 HPLC system. Chromatographic separation was achieved using a Synergi Polar RP (4 μm, 2.0 mm i.d. × 150 mm, Phenomenex). Analytes were eluted with a mobile phase consisting of water: formic acid (100:0.1 v/v) (phase A) and methanol: formic acid (100:0.1 v/v) (phase B) in gradient elution mode for 23 min a flow rate of 0.2 ml min^−1. The elution gradient was as follows: from 0 to 0.1 min the content of phase A was 37% and the content of phase A was decreased to 10% and maintained for 5.5 min. The content of phase A was increased back to 37% at 6.0 min and maintained for 23 min. Quantification was carried out using MRM in negative ionization mode and collision energy of 10–15 eV. The mass transition from Q1 to Q3 is shown in Supplementary Table 2. In this study, the peak areas for all components were automatically integrated using MassHunter B 06.00. […]
# [3] = tested on: immortalized human microglia; assay: LM-SPM profile of human microglia (LC-MS/MS, Supplementary Table 3, Fig 6d); assay type: cell-based; details: Aβ 50 µM alone; mean±s.e.m.
molecule,measurement,setting,value
"CCCCCCCCCCCCC/C=C/[C@@H](O)[C@@H](N)CO [Sph, sphingosine]","ac-S565, western blotting (Fig 3h)",[1]; Ab 10mM + supplement,0.6309 and 0.6553 and 0.6332 and 0.656
same,15R-LxA4 (Fig 3i),[2]; Ab + supplement,0.0305 and 0.03209 and 0.03444 and 0.02809 and 0.03291 and 0.03127
same,RvD1 (Fig 3i),[2]; Ab + supplement,0.01033
same,RvE1 (Fig 3i),[2]; Ab + supplement,0.01434 and 0.01128 and 0.01433 and 0.01281 (2×) and 0.01357
"Ab: Aβ 1–42 (Invitrogen, 03112) used to induce an AD environment in cells",11-HEPE in human microglia,[3],490.2±2.4 ng/ml*106cell
same,11-HETE in human microglia,[3],174.9±2.0 ng/ml*106cell
same,13-HDHA in human microglia,[3],128.2±1.8 ng/ml*106cell
same,15-HEPE in human microglia,[3],272.1±7.3 ng/ml*106cell
same,15-HETE in human microglia,[3],564.3±4.4 ng/ml*106cell
same,15R-LXA4 in human microglia,[3],0.03±0.0 ng/ml*106cell
same,17-HDHA in human microglia,[3],561.8±2.7 ng/ml*106cell
same,18-HEPE in human microglia,[3],1515.3±10.4 ng/ml*106cell
same,PGE3/PGD3 in human microglia,[3],163.9±2.5 ng/ml*106cell
same,PGH2/PGE2 in human microglia,[3],78.7±0.8 ng/ml*106cell
same,RvD1 in human microglia,[3],0.01±0.0 ng/ml*106cell
same,RvE1 in human microglia,[3],0.01±0.0 ng/ml*106cell
same,"ac-S565, western blotting (Fig 3h)","[1]; Ab 10mM, no supplement",0.4287 and 0.5828 and 0.4634 and 0.6503
same,"ac-S565 / total COX2, western blotting (Fig 3b)",[1]; Ab 10mM,0.7374 and 0.6807 and 0.7791 and 0.4902 and 0.709 and 0.7299
same,15R-LxA4 (Fig 3i),"[2]; Ab, no supplement",0.02349 and 0.02377 and 0.02373 and 0.02259 and 0.02438 and 0.02316
same,RvD1 (Fig 3i),"[2]; Ab, no supplement",0.01012
same,RvE1 (Fig 3i),"[2]; Ab, no supplement",0.01237 and 0.02326 and 0.01244 and 0.01782 and 0.01785 and 0.01513
B1,"ac-S565, western blotting (Fig 3h)",[1]; Ab 10mM + supplement,1.248 and 1.156 and 1.263 and 1.199
same,15R-LxA4 (Fig 3i),[2]; Ab + supplement,0.02407 and 0.02353 and 0.02184 and 0.02402 and 0.02413 and 0.02293
same,RvD1 (Fig 3i),[2]; Ab + supplement,0.01112
same,RvE1 (Fig 3i),[2]; Ab + supplement,0.01218 and 0.0124 and 0.01241 (2×) and 0.01229 and 0.01235
